From patent publication US9611248B2, “Chemical compounds” (Syngenta Participations AG, priority 2013, dated 2017) come the findings set out here.

Structures are written as SMILES.

In one assay the test system is a variety of test species. Kind of assay: Post-emergence herbicidal activity. As to conditions: rate 250 g/ha, evaluated after 13 days. It is filed as in vivo. Also on record: key to ABUTH (Abutilon theophrasti) damage score / AMARE (Amaranthus retroflexus) damage score / ALOMY (Alopecurus myosuroides) damage score / ECHCG (Echinochloa crus-galli) damage score / ZEAMX (Zea mays) damage score / SOLNI (Solanum nigrum) damage score: 0 = no damage to plant, 5 = total damage to plant. An outline of the steps:
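Plants grown for 8 days in pots were sprayed post-emergence with compound in acetone/water (50:50) containing 0.5% Tween 20. They were kept in a glasshouse at 24/16 °C day/night, 14 h light, 65% humidity, watered twice daily. Damage was scored after 13 days (0 none to 5 total).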
Regarding `COC1=C(C)C(=O)N(c2cc(Cl)c(-c3ccccc3)cn2)C1O` (stereo not drawn) [AD70], the “ABUTH (Abutilon theophrasti) damage score” value (“ABUTH” below) turned out to be 4, the “ALOMY (Alopecurus myosuroides) damage score” value (“ALOMY” below) was determined as 3, the “AMARE (Amaranthus retroflexus) damage score” value (from here on “AMARE”) came out at 5 and the “ECHCG (Echinochloa crus-galli) damage score” value (shortened to “ECHCG”) turned out to be 1. In addition, the “SETFA (Setaria faberi) damage score” value stood at 3 and the “ZEAMX (Zea mays) damage score” value is given as 1.
For the compound `COC1=C(C)C(=O)N(c2cc(C(F)(F)F)c(OC3CCC3)cn2)C1O` (stereo not drawn) [AD75], the “ABUTH” value is given as 5, the “ALOMY” value was determined as 4, the “AMARE” value turned out to be 5 and the “ECHCG” value was determined as 2. Moreover, the “SETFA (Setaria faberi) damage score” value came to 4 and the “ZEAMX (Zea mays) damage score” value was 1.
With `COC1=C(C)C(=O)N(c2cc(C(F)(F)F)c(OCCc3cccs3)cn2)C1O` (stereo not drawn) [AD76], the “ABUTH” value worked out at 4, the “ALOMY” value came out at 2, the “AMARE” value is 4 and the “ECHCG” value turned out to be 1. The “SETFA (Setaria faberi) damage score” value was found to be 3 and the “ZEAMX (Zea mays) damage score” value came to 1.
Consider `C=C(C)COc1cnc(N2C(=O)C(C)=C(OC)C2O)cc1C(F)(F)F` (stereo not drawn) [AD77], for which the “ABUTH” value was 5, the “ALOMY” value is 3, the “AMARE” value is 5 and the “ECHCG” value is recorded as 1. Moreover, the “SETFA (Setaria faberi) damage score” value worked out at 4 and the “ZEAMX (Zea mays) damage score” value is listed as 0.
With `COC1=C(C)C(=O)N(c2cc(C(F)(F)F)c(OCCOCc3ccccc3)cn2)C1O` (stereo not drawn) [AD81], the “ABUTH” value amounted to 5, the “ALOMY” value is reported as 2, the “AMARE” value stood at 5 and the “ECHCG” value was found to be 2. For the same compound, the “SETFA (Setaria faberi) damage score” value is listed as 3 and the “ZEAMX (Zea mays) damage score” value turned out to be 1.
For `COC1=C(C)C(=O)N(c2cc(C(F)(F)F)c(OCCc3ccccc3)cn2)C1O` (stereo not drawn) [AD85], the “ABUTH” value is 5, the “ALOMY” value is 2, the “AMARE” value turned out to be 5 and the “ECHCG” value amounted to 2. For the same compound, the “SETFA (Setaria faberi) damage score” value was found to be 4 and the “ZEAMX (Zea mays) damage score” value turned out to be 1.

The same assay, now with this note: rate 1000 g/ha, evaluated after 13 days.
With `CCc1cc(N2C(=O)C(C)=C(OC)C2O)ncc1-c1ccc(F)cc1` (stereo not drawn) [AD62], the “ABUTH” value worked out at 4, the “ALOMY” value amounted to 3, the “AMARE” value is listed as 5 and the “ECHCG” value amounted to 3. For the same compound, the “SETFA (Setaria faberi) damage score” value came out at 5 and the “ZEAMX (Zea mays) damage score” value amounted to 0.
With `COC1=C(C)C(=O)N(c2cc(C)c(-c3ccccc3)cn2)C1O` (stereo not drawn) [AD63], the “ABUTH” value is given as 5, the “ALOMY” value is on record as 3, the “AMARE” value came out at 5 and the “ECHCG” value is on record as 3. Moreover, the “SETFA (Setaria faberi) damage score” value was determined as 5 and the “ZEAMX (Zea mays) damage score” value came out at 1.
Turning to `COC1=C(C)C(=O)N(c2cc3c(cn2)CCCC3)C1O` (stereo not drawn) [AD64], the “ABUTH” value is listed as 4, the “ALOMY” value amounted to 1, the “AMARE” value is on record as 2 and the “ECHCG” value is listed as 3. Moreover, the “SETFA (Setaria faberi) damage score” value worked out at 5 and the “ZEAMX (Zea mays) damage score” value came to 1.
Regarding `COC1=C(C)C(=O)N(c2cc(C)c(-c3ccc(F)cc3C)cn2)C1O` (stereo not drawn) [AD65], the “ABUTH” value worked out at 4, the “ALOMY” value was determined as 2, the “AMARE” value came to 5 and the “ECHCG” value was 4. The “SETFA (Setaria faberi) damage score” value came to 5 and the “ZEAMX (Zea mays) damage score” value came out at 1.
Consider `COC1=C(C)C(=O)N(c2cc(C)c(-c3ccccc3C)cn2)C1O` (stereo not drawn) [AD66], for which the “ABUTH” value stood at 4, the “ALOMY” value is on record as 1, the “AMARE” value is reported as 5 and the “ECHCG” value was 4. Besides, the “SETFA (Setaria faberi) damage score” value worked out at 5 and the “ZEAMX (Zea mays) damage score” value came to 0.
Turning to `COC1=C(C)C(=O)N(c2cc(C(F)(F)Cl)ccn2)C1O` (stereo not drawn) [AD67], the “ABUTH” value stood at 5, the “ALOMY” value amounted to 4, the “AMARE” value is recorded as 5 and the “ECHCG” value is listed as 5. Further, the “SETFA (Setaria faberi) damage score” value turned out to be 5 and the “ZEAMX (Zea mays) damage score” value turned out to be 1.
Consider `CCOC(=O)c1cnc(N2C(=O)C(C)=C(OC)C2O)cc1Cl` (stereo not drawn) [AD68], for which the “ABUTH” value is recorded as 3, the “ALOMY” value was found to be 1, the “AMARE” value is 5 and the “ECHCG” value is recorded as 4. Besides, the “SETFA (Setaria faberi) damage score” value is on record as 5 and the “ZEAMX (Zea mays) damage score” value is 1.
`COC1=C(C)C(=O)N(c2cc(Cl)c(Br)cn2)C1O` (stereo not drawn) [AD69]: the “ABUTH” value came to 0, the “ALOMY” value is reported as 2, the “AMARE” value stood at 4 and the “ECHCG” value is recorded as 3. Moreover, the “SETFA (Setaria faberi) damage score” value is reported as 5 and the “ZEAMX (Zea mays) damage score” value was determined as 1.
For the compound `CCc1cc(N2C(=O)C(C)=C(OC)C2O)ncc1C=C(C)C` (stereo not drawn) [AD71], the “ABUTH” value amounted to 4, the “ALOMY” value stood at 2, the “AMARE” value is recorded as 5 and the “ECHCG” value is recorded as 3. The “SETFA (Setaria faberi) damage score” value came out at 5 and the “ZEAMX (Zea mays) damage score” value worked out at 2.
Consider `CCCOc1cnc(N2C(=O)C(C)=C(OC)C2O)cc1C(F)(F)F` (stereo not drawn) [AD72], for which the “ABUTH” value is 5, the “ALOMY” value was determined as 5, the “AMARE” value stood at 5 and the “ECHCG” value turned out to be 5. Moreover, the “SETFA (Setaria faberi) damage score” value stood at 5 and the “ZEAMX (Zea mays) damage score” value turned out to be 2.
On to `C=CCCOc1cnc(N2C(=O)C(C)=C(OC)C2O)cc1C(F)(F)F` (stereo not drawn) [AD73], for which the “ABUTH” value was found to be 5, the “ALOMY” value turned out to be 4, the “AMARE” value came out at 5 and the “ECHCG” value is 4. Moreover, the “SETFA (Setaria faberi) damage score” value is 5 and the “ZEAMX (Zea mays) damage score” value is on record as 1.
For `COC1=C(C)C(=O)N(c2cc(C(F)(F)F)c(OCc3cccc(OC)c3)cn2)C1O` (stereo not drawn) [AD74], the “ABUTH” value was determined as 3, the “ALOMY” value came out at 2, the “AMARE” value was found to be 5 and the “ECHCG” value is 2. The “SETFA (Setaria faberi) damage score” value was 5 and the “ZEAMX (Zea mays) damage score” value is on record as 1.
On to `CCCCOc1cnc(N2C(=O)C(C)=C(OC)C2O)cc1C(F)(F)F` (stereo not drawn) [AD78], for which the “ABUTH” value is reported as 4, the “ALOMY” value is 3, the “AMARE” value is on record as 5 and the “ECHCG” value turned out to be 5. The “SETFA (Setaria faberi) damage score” value amounted to 5 and the “ZEAMX (Zea mays) damage score” value worked out at 2.
For `COC1=C(C)C(=O)N(c2cc(C(F)(F)F)c(OCCCF)cn2)C1O` (stereo not drawn) [AD79], the “ABUTH” value came out at 5, the “ALOMY” value is 5, the “AMARE” value is recorded as 5 and the “ECHCG” value was 5. Also, the “SETFA (Setaria faberi) damage score” value is listed as 5 and the “ZEAMX (Zea mays) damage score” value was 2.
In the case of `COC1=C(C)C(=O)N(c2cc(C(F)(F)F)c(OCCOC(C)(C)C)cn2)C1O` (stereo not drawn) [AD80], the “ABUTH” value came to 4, the “ALOMY” value is listed as 3, the “AMARE” value is on record as 5 and the “ECHCG” value is listed as 4. Moreover, the “SETFA (Setaria faberi) damage score” value worked out at 5 and the “ZEAMX (Zea mays) damage score” value is recorded as 1.
In the case of `COC1=C(C)C(=O)N(c2cc(C(F)(F)F)c(OCc3ccccc3)cn2)C1O` (stereo not drawn) [AD82], the “ABUTH” value turned out to be 4, the “ALOMY” value is 2, the “AMARE” value was 5 and the “ECHCG” value was 3. Besides, the “SETFA (Setaria faberi) damage score” value was determined as 5 and the “ZEAMX (Zea mays) damage score” value was 1.
As to `COCCCOc1cnc(N2C(=O)C(C)=C(OC)C2O)cc1C(F)(F)F` (stereo not drawn) [AD83], the “ABUTH” value is 5, the “ALOMY” value is given as 4, the “AMARE” value stood at 5 and the “ECHCG” value was found to be 5. In addition, the “SETFA (Setaria faberi) damage score” value was 5 and the “ZEAMX (Zea mays) damage score” value came out at 1.
Turning to `COC1=C(C)C(=O)N(c2cc(C(F)(F)F)c(OCCCc3ccccc3)cn2)C1O` (stereo not drawn) [AD84], the “ABUTH” value was 2, the “ALOMY” value stood at 1, the “AMARE” value was determined as 5 and the “ECHCG” value is reported as 2. In addition, the “SETFA (Setaria faberi) damage score” value stood at 4 and the “ZEAMX (Zea mays) damage score” value was 1.
